Test results: ChEMBL document CHEMBL4842306, “Pentadecaibins I-V: 15-Residue Peptaibols Produced by a Marine-Derived Trichoderma sp. of the Harzianum Clade” (J Nat Prod, 2021)
pIC50: −log10 of the molar value. Non-standard residues stand in square brackets, D forms with d. Residues, ends and D or L forms follow the SMILES beside them. Phe(ol) = N[C@H](CO)Cc1ccccc1; Aib = CC(C)(N)C(=O)O

Columns and labels:
KB = assay: Cytotoxicity against human KB cells assessed as cell viability after 72 hrs by MTT assay; format: functional, cell-based
Escherichia coli = assay: Antibacterial activity against Escherichia coli CIP54.8T assessed as inhibition of microbial growth incubated for 24 hrs by spectrophotometry; format: functional
Candida albicans = assay: […] isolate Candida albicans assessed as inhibition of microbial growth incubated for 24 hrs by spectrophotometry; format: functional
Staphylococcus aureus = assay: Antibacterial activity against Staphylococcus aureus CIP53.156 assessed as inhibition of microbial growth incubated for 24 hrs by spectrophotometry; format: functional

SMILES	MIC (Escherichia coli)	MIC (Candida albicans)	MIC (Staphylococcus aureus)	pIC50 (KB)
CC(=O)NC(C)(C)C(=O)N1CCC[C@H]1C(=O)NC(C)(C)C(=O)N[C@@H](C)C(=O)NC(C)(C)C(=O)N[C@@H](C)C(=O)N[C@@H](CCC(N)=O)C(=O)NC(C)(C)C(=O)N[C@H](C(=O)NC(C)(C)C(=O)NCC(=O)N[C@@H](CC(C)C)C(=O)NC(C)(C)C(=O)N1CCC[C@H]1C(=O)N[C@H](C(=O)NC(C)(C)C(=O)NC(C)(C)C(=O)N[C@H](CCC(N)=O)C(=O)N[C@H](CCC(N)=O)C(=O)N[C@H](CO)Cc1ccccc1)C(C)C)C(C)C	–	–	–	5.05
CC[C@@](C)(NC(=O)[C@H](CC(C)C)NC(=O)[C@H](C)NC(=O)CNC(=O)C(C)(C)NC(C)=O)C(=O)N[C@@H](CCC(N)=O)C(=O)N[C@](C)(CC)C(=O)N[C@H](C(=O)NC(C)(C)C(=O)N[C@@H](C)C(=O)NC(C)(C)C(=O)NC(C)(C)C(=O)NC(C)(C)C(=O)N[C@@H](CCC(N)=O)C(=O)N[C@H](CO)Cc1ccccc1)C(C)C	> 100 µg/mL	> 100 µg/mL	25 µg/mL	6.15

The next lines start with results.

MIC (Escherichia coli)	MIC (Candida albicans)	MIC (Staphylococcus aureus)	SMILES	pIC50 (KB)
> 100 µg/mL	> 100 µg/mL	> 100 µg/mL	CC[C@@](C)(NC(=O)[C@H](CCC(N)=O)NC(=O)C(C)(C)NC(=O)[C@H](CC(C)C)NC(=O)[C@H](C)NC(=O)CNC(=O)C(C)(C)NC(C)=O)C(=O)N[C@@H](CC(C)C)C(=O)NC(C)(C)C(=O)N[C@@H](C)C(=O)NC(C)(C)C(=O)NC(C)(C)C(=O)NC(C)(C)C(=O)N[C@@H](CCC(N)=O)C(=O)N[C@H](CO)Cc1ccccc1	6.10
> 100 µg/mL	> 100 µg/mL	25 µg/mL	CC[C@@](C)(NC(=O)[C@H](CCC(N)=O)NC(=O)C(C)(C)NC(=O)[C@H](CC(C)C)NC(=O)[C@H](C)NC(=O)CNC(=O)C(C)(C)NC(C)=O)C(=O)N[C@H](C(=O)NC(C)(C)C(=O)N[C@@H](C)C(=O)NC(C)(C)C(=O)NC(C)(C)C(=O)NC(C)(C)C(=O)N[C@@H](CCC(N)=O)C(=O)N[C@H](CO)Cc1ccccc1)C(C)C	6.10
> 100 µg/mL	> 100 µg/mL	> 100 µg/mL	CC(=O)NC(C)(C)C(=O)NCC(=O)N[C@@H](C)C(=O)N[C@@H](CC(C)C)C(=O)NC(C)(C)C(=O)N[C@@H](CCC(N)=O)C(=O)NC(C)(C)C(=O)N[C@@H](CC(C)C)C(=O)NC(C)(C)C(=O)N[C@@H](C)C(=O)NC(C)(C)C(=O)NC(C)(C)C(=O)NC(C)(C)C(=O)N[C@@H](CCC(N)=O)C(=O)N[C@H](CO)Cc1ccccc1 (Ac-[Aib]GAL[Aib]Q[Aib]L[Aib]A[Aib][Aib][Aib]Q[Phe(ol)])	5.37
> 100 µg/mL	> 100 µg/mL	25 µg/mL	CC(=O)NC(C)(C)C(=O)NCC(=O)N[C@@H](C)C(=O)N[C@@H](CC(C)C)C(=O)NC(C)(C)C(=O)N[C@@H](CCC(N)=O)C(=O)NC(C)(C)C(=O)N[C@H](C(=O)NC(C)(C)C(=O)N[C@@H](C)C(=O)NC(C)(C)C(=O)NC(C)(C)C(=O)NC(C)(C)C(=O)N[C@@H](CCC(N)=O)C(=O)N[C@H](CO)Cc1ccccc1)C(C)C (Ac-[Aib]GAL[Aib]Q[Aib]V[Aib]A[Aib][Aib][Aib]Q[Phe(ol)])	5.62
